# Measured values from paper PMC5951806, “Rapid labelling and covalent inhibition of intracellular native proteins using ligand-directed N-acyl-N-alkyl sulfonamide” (Nature Communications, 2018).
# Legend:
# [1] = molecular target: T1, Elongation factor 1-alpha 1 (EEF1A1) (Homo sapiens, UniProt P68104); experiment: TMT LC-MSMS of 11-labelled proteins; type: cell-based
# T1 sequence (P68104 1-462): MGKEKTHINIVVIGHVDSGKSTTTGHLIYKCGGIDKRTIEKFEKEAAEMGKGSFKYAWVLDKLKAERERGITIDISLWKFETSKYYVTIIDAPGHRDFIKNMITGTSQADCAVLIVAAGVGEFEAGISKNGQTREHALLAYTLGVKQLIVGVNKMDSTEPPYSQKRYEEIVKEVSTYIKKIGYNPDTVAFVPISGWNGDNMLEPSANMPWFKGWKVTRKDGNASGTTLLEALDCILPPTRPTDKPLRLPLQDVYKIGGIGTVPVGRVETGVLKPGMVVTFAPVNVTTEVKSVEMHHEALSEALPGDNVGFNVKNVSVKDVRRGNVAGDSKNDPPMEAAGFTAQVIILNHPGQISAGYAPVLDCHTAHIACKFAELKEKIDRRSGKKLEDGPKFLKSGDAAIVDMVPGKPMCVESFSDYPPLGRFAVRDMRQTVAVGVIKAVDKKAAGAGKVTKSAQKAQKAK
# Source text: (§1) The labelled proteins were enriched by immunoprecipitation with an anti-fluorescein antibody and tryptically digested in gel. Digested peptides were modified with Light- (L-), Medium- (M-), or Heavy- (H-) TMT reagent for samples treated with 11, 11 with PU-H71 (as competitive condition), or DMSO (vehicle), respectively, and mixed in a 1:1:1 ratio for LC-MSMS analysis. We performed three experimental replicates, in which proteins detected and quantified at least twice were selected as identified proteins. According to the related approach of Cravatt et al[44], the proteins having L/H (11/DMSO) ratios >5 were defined as 11-labelled proteins. […] On the basis of these criteria, we identified 6 proteins that react with 11, including three ligand-specific targets (Hsp90α (HSP90AA1), Hsp90β (HSP90AB1), and Grp94 (HSP90B1)) and three off-targets (Trifunctional enzyme subunit α (HADHA), Tubulin-α (TUBA1B), and ADP/ATP translocase 3 (SLC25A6)) (Fig. 5d, e and Supplementary Data 1). […] Grp94, a HSP90 isomer, was previously reported to be a PU-H71 specific target. TRAP-1, another Hsp90 isomer that can bind PU-H71, on the other hand, was not identified as 11-target by our criteria.
# (§2) SKBR3 human breast cancer cells (2.0 × 10^6 cells) were seeded on a 10 cm dish and cultured for 3 days in McCoy’s 5A in a 5% CO2 humidified chamber at 37 °C. […] As competitive experiments, the labelling was conducted in the presence of PU-H71 (10 µM). After labelling, the cells were washed twice with PBS, and lysed with RIPA buffer. […] The supernatant was mixed with chilled acetone and incubated overnight at −80 °C. The protein precipitates were solubilized by sonication in 1 mL of RIPA buffer containing 1% SDS, and then 10-fold diluted with RIPA buffer to reduce SDS concentration to c.a. 0.1%. The protein solution (containing 1 mg of protein) was mixed with Protein G Sepharose 4 Fast Flow (GE Healthcare) and rotated at 4 °C for 1 h. After removal of the beads, the remaining supernatant was mixed with anti-fluorescein antibody (Abcam, ab19491, 7:10000) and rotated at 4 °C for 1 h, followed by addition of fresh Protein G Sepharose 4 Fast Flow and further incubation at 4 °C for 4 h. The beads were washed five times with RIPA buffer and once with PBS. Proteins were eluted from the beads by addition of 2 × sample buffer containing 100 mM DTT and boiling at 95 °C for 5 min. The samples were subjected to a 7.5% SDS–PAGE gel (Mini-PROTEAN TGX Gels, BioRad), and electrophoresed as the migration distance of dye front is about 10 mm. Each lane was excised (height, 10 mm), and treated with a 47.5% methanol / 47.5% pure water / 5% acetic acid for 20 min, a 50% methanol / 50% pure water for 10 min, and in pure water for 10 min. The gel pieces were dehydrated with 100% acetonitrile, and then swelled with 200 μL of 100 mM TEAB (triethylamine bicarbonate) buffer containing 10 mM DTT and heated at 56 °C for 30 min. The solutions were replaced with 200 µL of 100 mM TEAB buffer containing 55 mM iodoacetamide and incubated for 45 min in the dark. The gel pieces were washed with 100 mM TEAB buffer and dehydrated in acetonitrile. This step was repeated once. The gels were reswelled in 100 mM TEAB buffer containing 10 ng/μL Sequencing Grade Trypsin (Promega) and incubated overnight at 37 °C. To the gels, 50 μL of an extraction solution (50% acetonitrile, 0.1% TFA) was added. After 10 min incubation, the supernatants were collected to new tubes, and this process was repeated twice. Extracted peptides were dried in vacuo and reconstituted with 25 μL of 100 mM TEAB buffer.
# [2] = molecular target: ATP synthase subunit beta, mitochondrial (ATP5B) (Homo sapiens, UniProt P06576); experiment: TMT LC-MSMS of 11-labelled proteins; type: cell-based
# Source text: as §1, §2
# [3] = sheet Merged, SKBR3 cells, 11 0.5 µM 3 h vs DMSO
# [4] = sheet Merged, SKBR3 cells, 11 0.5 µM 3 h vs with PU-H71 10 µM
compound,measurement,setting,value
CC(=O)Oc1ccc2c(c1)Oc1cc(OC(C)=O)ccc1C21OC(=O)c2cc(C(=O)NCCOCCOCCNC(=O)CCCC(=O)N(CC#N)S(=O)(=O)c3ccc(C(=O)NCCCn4c(Sc5cc6c(cc5I)OCO6)nc5c(N)ncnc54)cc3)ccc21 [compound 11],Abundance Ratio: (11) / (11 with PU-H71),"[1]; Exp3, EEF1A1",0.806
same,Abundance Ratio: (11) / (DMSO),"[1]; Exp3, EEF1A1",4.916
same,Abundances (Grouped): 11,"[1]; Exp3, EEF1A1",720.2
same,Abundances (Grouped): 11 with PU-H71,"[1]; Exp3, EEF1A1",894
same,Abundance Ratio: (11) / (DMSO),"[1]; sheet Exp1, SKBR3 cells, 11 0.5 µM 3 h vs DMSO",4.039
same,Abundance Ratio: (11) / (11 with PU-H71),"[1]; sheet Exp1, SKBR3 cells, 11 0.5 µM 3 h vs with PU-H71 10 µM",0.803
same,Abundance Ratio: (11) / (11 with PU-H71),"[1]; sheet Exp2, EEF1A1",0.83
same,Abundance Ratio: (11) / (DMSO),"[1]; sheet Exp2, EEF1A1",3.879
same,Abundances (Grouped): 11,"[1]; sheet Exp2, EEF1A1",725.4
same,Abundances (Grouped): 11 with PU-H71,"[1]; sheet Exp2, EEF1A1",874.4
same,Abundance Ratio: (11) / (DMSO),[1]; [3],3.879
same,Abundance Ratio: (11) / (11 with PU-H71),[1]; [4],0.811
same,Abundance Ratio: (11) / (11 with PU-H71),"[2]; sheet Exp2, ATP5B",0.866
same,Abundance Ratio: (11) / (DMSO),"[2]; sheet Exp2, ATP5B",1.928
same,Abundances (Grouped): 11,"[2]; sheet Exp2, ATP5B",141.5
same,Abundances (Grouped): 11 with PU-H71,"[2]; sheet Exp2, ATP5B, with PU-H71",163.4
same,Abundance Ratio: (11) / (DMSO),[2]; [3],1.928
same,Abundance Ratio: (11) / (11 with PU-H71),[2]; [4],0.866
